Measured values reported in patent US20250057819A1, “DRUG COMBINATIONS FOR INHIBITING CORONAVIRUS REPLICATION” (priority 2021, published 2025).
Structures can show the parent of a compound that is named as a salt. Where two headings read alike, the source gives them in different places.

Legend:
SARS-CoV-2 [1] = settings: reports from in vitro studies (ref. 16); cited from earlier work
Covid-19 = settings: adults hospitalized with Covid-19 (ref. 17); cited from earlier work
SARS-CoV-2 [2] = experiment: microbe, parasite or virus in culture; format: cell-based; settings: read-out: SARS-CoV-2 EC50
Huh7.5 cells = experiment: Cell viability assay (MTT) in Huh7.5 cells; format: cell-based, human; settings: Huh7.5 (B), read-out: SARS-CoV-2 CC50
Description: (§1) Cell viability was monitored by a mitochondrial activity test using methyl-thiazolyl-tetrazolium (MTT, Sigma). After 48 hours of drug treatment, cells were treated with 1 mg/ml of MTT during 3 hours at 37° C. The supernatants were removed and the MTT crystals were dissolved using DMSO and a shaker. The absorbance was read with a Tecan Spark at 570 nm with reference at 650 nm.
(§2) Only the most promising molecules or those studied in synergy were tested in Calu3 cells.

Calu3 cells = experiment: Cell viability assay (MTT) in Calu3 cells; format: cell-based, Human; settings: Calu3 (C), read-out: SARS-CoV-2 CC50
Description: as §1, §2

SARS-CoV-2 [3] = experiment: Drug tests in SARS-CoV-2 model, Calu3 cells, viral titration by plaque assay in Vero E6; settings: read-out: SARS-CoV-2 EC50; Calu3 (C), MOI 0.05, 48 h treatment
rHCoVs-OC43 = experiment: organism not typed; format: cell-based; settings: for IC50: drug 2 alone (fast synergy screening table), read-out: IC50; for EC50: drug alone, HRT-18 cells, MOI 0.025, 48 h treatment, decrease of Rluc, read-out: EC50
HRT-18 cells = experiment: Cell viability assay (MTT) in HRT-18 cells
[4] = Cell viability assay (MTT) in Huh7.5 cells; format: cell-based, human; settings: human, Huh7.5 cells, Huh7.5 (B), read-out: SARS-CoV-2 CC50
Description: as §1, §2

[5] = Cell viability assay (MTT) in Calu3 cells; format: cell-based, Human; settings: human, Calu3 cells, Calu3 (C), read-out: SARS-CoV-2 CC50
Description: as §1, §2

[6] = Cell viability assay (MTT) in HRT-18 cells; settings: human, CC50 (μM)
[7] = drug 2 alone (fast synergy screening table)
[8] = drug alone, HRT-18 cells, 48 h treatment, MTT
[9] = Severe acute respiratory syndrome coronavirus 2, Huh7.5, 48 h

Row | SMILES | EC50 (SARS-CoV-2 [2]) [nM] | CC50 (Huh7.5 cells) [nM] | EC50 (SARS-CoV-2 [3]) [nM] | IC50 (rHCoVs-OC43) [nM] | EC50 (rHCoVs-OC43) [nM] | EC50 (SARS-CoV-2 [2]; [9]) [nM] | CC50 at 48 h [4] [nM] | CC50 at 48 h [5] [nM] | CC50 at 48 h [6, 8] [µM] | further results
1 | Cc1cccc(C)c1OCC(=O)N[C@@H](Cc1ccccc1)[C@@H](O)C[C@H](Cc1ccccc1)NC(=O)[C@H](C(C)C)N1CCCNC1=O [Lopinavir] | – | – | – | – | – | – | – | – | – | EC50 (SARS-CoV-2 [1]): 26000 nM; clinical benefit (Covid-19): no benefit was observed
2 | CC(C)C(=O)OC[C@H]1O[C@@H](n2cc/c(=N\O)[nH]c2=O)[C@H](O)[C@@H]1O [Molnupinavir] | 84 | > 10000 | 35 | – | – | – | – | – | – | CC50 (Calu3 cells): > 10000 nM
3 | COc1c(C)c2c(c(O)c1C/C=C(\C)CCC(=O)OCCN1CCOCC1)C(=O)OC2 [Mycophenolate mofetil] | 1180 | 9100 | – | 180 | 180 | – | – | – | – | CC50 (HRT-18 cells; [7]): > 10000 nM; CC50 (HRT-18 cells; [8]): > 10000 nM
4 | CCC(CC)COC(=O)[C@H](C)N[P@](=O)(OC[C@H]1O[C@@](C#N)(c2ccc3c(N)ncnn23)[C@H](O)[C@@H]1O)Oc1ccccc1 [Remdesivir] | – | – | 4 | 34 | 34 | ≤ 1 | > 10000 | > 10000 | 2.5 | IC50 (rHCoVs-OC43; 48 h): 34 nM; CC50 at 48 h [6, 7]: 2.5 µM
5 | CCN(CC)CCOc1ccc2c(c1)C(=O)c1cc(OCCN(CC)CC)ccc1-2 [Tilorone dihydrochloride] | – | – | 70 | – | 14 | 500 | > 10000 | > 10000 | > 10 | –
